Assay results taken from PubChem BioAssay (NCI).
Values joined by “and” are separate entries in the source; they are usually repeats but may differ in a detail not shown here. Equal entries are not always repeated.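 Five compound concentrations were applied to cells in 96-well plates for 48 hours; endpoints were derived by simple linear interpolation of the resulting dose-response curve. Abbreviation: GI50, concentration required for 50% inhibition of growth. At the TGI there is no net growth.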

What was measured:
Assay in all cases: DTP human tumour cell line panel, 48 h
MALME-3M melanoma = system: MALME-3M melanoma
SNB-75 CNS = system: SNB-75 CNS
HL-60(TB) leukemia = system: HL-60(TB) leukemia
SK-MEL-28 melanoma = system: SK-MEL-28 melanoma
CAKI-1 renal = system: CAKI-1 renal
SK-OV-3 ovarian = system: SK-OV-3 ovarian
SF-539 CNS = system: SF-539 CNS
IGROV1 ovarian = system: IGROV1 ovarian
ACHN renal = system: ACHN renal
KM12 colon = system: KM12 colon

Row | SMILES | TGI (MALME-3M melanoma) | TGI (SNB-75 CNS) | TGI (HL-60(TB) leukemia) | TGI (SK-MEL-28 melanoma) | TGI (CAKI-1 renal) | TGI (SK-OV-3 ovarian) | TGI (SF-539 CNS) | TGI (IGROV1 ovarian) | TGI (ACHN renal) | TGI (KM12 colon) | GI50 (MALME-3M melanoma) | GI50 (SNB-75 CNS) | GI50 (HL-60(TB) leukemia) | GI50 (SK-MEL-28 melanoma) | GI50 (CAKI-1 renal) | GI50 (SK-OV-3 ovarian) | GI50 (SF-539 CNS) | GI50 (IGROV1 ovarian) | GI50 (ACHN renal) | GI50 (KM12 colon)
1 | CC(C)(C)NCc1cc(C(C)(C)C)cc(-c2ccc(Cl)cc2)c1O | 27.8 µM | 22.7 µM | 23.4 µM | 28.2 µM | 25.6 µM | 31.5 µM | 27.9 µM | 24.6 µM | 26.7 µM | 27.1 µM | – | – | – | – | – | – | – | – | – | –
2 | C[C@]1(CO)[C@H]2CC[C@@]34C=C[C@@](CO)(CC[C@H]3[C@]2(C)CC[C@H]1O)C4 | > 100 µM | > 100 µM | > 100 µM | > 100 µM | > 100 µM | > 100 µM | > 100 µM | > 100 µM | > 100 µM | > 100 µM | – | – | – | – | – | – | – | – | – | –
3 | O=c1[nH]c(=O)n(C2OC(CO)C(O)C2O)c2c1CCCC2 (stereo unspecified) | > 100 µM | > 100 µM | > 100 µM | > 100 µM | > 100 µM | > 100 µM | > 100 µM | > 100 µM | > 100 µM | > 100 µM | – | – | – | – | – | – | – | – | – | –
4 | Cn1ncc2c(N)nc(N3CCCCC3)nc21 | 67.9 µM | > 100 µM | > 100 µM | > 100 µM | > 100 µM | > 100 µM | > 100 µM | > 100 µM | > 100 µM | 82.8 µM | 20.8 µM | 29.7 µM | 36 µM | 24.1 µM | 29 µM | 22.5 µM | 25.4 µM | 33.9 µM | 33.6 µM | 26.2 µM
5 | Cc1sc(C)c(Cc2c(C)sc(C)c2CCl)c1CCl | > 100 µM | > 100 µM | > 100 µM | > 100 µM | > 100 µM | > 100 µM | > 100 µM | > 100 µM | > 100 µM | > 100 µM | 81.4 µM | 51.5 µM | > 100 µM | > 100 µM | > 100 µM | > 100 µM | > 100 µM | > 100 µM | > 100 µM | > 100 µM
6 | Cc1nc2ccc(Nc3nc(NCCN4CCOCC4)nc(Nc4ccc(F)cc4)n3)cc2n1Cc1ccccc1 | 3.6 µM | 4.82 µM | 4.72 µM | 2.94 µM | 65 µM | 17.3 µM | 3.23 µM | 46 µM | 17.5 µM | 19.9 µM | 2.04 µM | 1.59 µM | 1.82 µM | 1.56 µM | 2.55 µM | 4.48 µM | 1.63 µM | 5.59 µM | 2.78 µM | 3.82 µM
7 | NC(=O)N/N=C/C(/C=N/NC(N)=O)[N+](=O)[O-] | > 100 µM | > 100 µM | > 100 µM | > 100 µM | > 100 µM | > 100 µM | > 100 µM | > 100 µM | > 100 µM | > 100 µM | – | – | – | – | – | – | – | – | – | –
8 | C=C=C(CC)C(C(=O)OC)N(CC)CC (stereo unspecified) | > 100 µM | > 100 µM | > 100 µM | > 100 µM | > 100 µM | > 100 µM | > 100 µM | > 100 µM | > 100 µM | > 100 µM | – | – | – | – | – | – | – | – | – | –
9 | C=C1C(=O)OC2CC1C(O)C/C(C)=C/CC/C(C)=C/C(O)CC2C (stereo unspecified) | 7.61 µM | 16.3 µM | 1.32 µM | 9.8 µM | 8.39 µM | 26.5 µM | 6.55 µM | 9.3 µM | 3.75 µM | 18.3 µM | – | – | – | – | – | – | – | – | – | –
10 | CC[C@@]1(O)C(=O)NCc2c1cc1n(c2=O)Cc2cc3c(N)cccc3nc2-1 | – | > 18.3 µM | > 34.6 µM | > 77.7 µM | 5.51 µM | > 86.1 µM | 10.9 µM | > 100 µM | > 46.6 µM | > 36.9 µM | 1.1 µM | 0.873 µM | 1.19 µM | 8.8 µM | 0.981 µM | 4.54 µM | 1.04 µM | 10.1 µM | 1.23 µM | 10.6 µM
11 | COc1ccccc1NC(=O)n1nc(N)c2ccccc21 | > 100 µM | > 100 µM | > 100 µM | > 100 µM | > 100 µM | > 100 µM | > 100 µM | > 100 µM | > 100 µM | > 100 µM | > 100 µM | 37 µM | 55 µM | > 100 µM | > 100 µM | > 100 µM | 58.4 µM | 14.7 µM | > 81.7 µM | 47.4 µM
12 | CO/C1=C\C(C)=C\C(C)C(O)C(C)C/C(C)=C/C=C/C(OC)C(C(C)C(O)C(C)C2(O)CC(O)C(C)C(C(C)C)O2)OC1=O (stereo unspecified) | 0.0914 µM and 0.0629 µM | – | 0.0136 µM | 23.5 µM | 9.89 µM | 33.6 µM | 0.0827 µM | 23.7 µM | 13.2 µM | 15 µM | 0.0237 µM | 0.0396 µM | – | – | 0.021 µM | – | – | – | – | –
13 | CCOC(=O)C(=Cc1ccccc1[N+](=O)[O-])C(=O)OCC | 13.2 µM | 9.68 µM | 45.5 µM | 9.59 µM | 14.3 µM | 12.7 µM | 9.32 µM | 15.4 µM | 4.31 µM | 10.3 µM | 3.85 µM | 2.57 µM | 3.3 µM | 2.93 µM | 3.61 µM | 3.51 µM | 3.55 µM | 3.77 µM | 2.06 µM | 2.72 µM
14 | N#Cc1c(-c2ccccc2)cc(-c2ccc(Nc3nc(Nc4ccc(Cl)cc4)nc(Nc4ccc(Cl)cc4)n3)cc2)nc1N | 3.62 µM | 14.4 µM | 5.35 µM | 2.8 µM | 30.4 µM | 55 µM | 3.24 µM | 2.67 µM | 3.26 µM | 11.4 µM | 1.69 µM | 2.65 µM | 1.71 µM | 1.22 µM | 11.8 µM | 21.3 µM | 1.69 µM | 1.34 µM | 1.64 µM | 2.91 µM
15 | Cc1c(C(=O)c2ccccc2C(=O)O)c2ccccc2n1C | > 100 µM | > 100 µM | > 100 µM | > 100 µM | > 100 µM | > 100 µM | > 100 µM | > 100 µM | > 100 µM | > 100 µM | – | – | – | – | – | – | – | – | – | –
